Measurements published in US5610185A, “Method for the treatment of hyperproliferative epithelial skin diseases by topical application of hydroxylated aromatic protein cross-linking compounds” (The United States of America as represented by the …, priority 1995, dated 1997).
“Also recorded” adds a separate entry of the source.

How the values were obtained:
[1] = test system: A431 human epidermoid carcinoma cells; assay: Growth inhibition (cell count), A431 cells; type: cell-based; conditions: 75 μM MC, 3 days
Method: (§1) FIG. 5. Cross-linked Protein Production vs Growth Inhibition in A431 ([…]) Cells. Cell growth is represented by black circles and crosslinked protein production by white circles. Results are ±SD (n=3) of one experiment, representative of three.
(§2) Cells were seeded at low density and were treated with MC for 3 days. Cells were then counted and increase in cell number was compared to untreated controls, or cells were processed for cross-linked protein (FIG. 5).

[2] = test system: HPV 18 infected human keratinocytes; assay: Cornified envelope (cross-linked protein) assay, HPV 18 infected keratinocytes; type: cell-based; conditions: 48 h, 0.1-1 mM
Source text: (§3) FIG. 1. MC Increases Cross-linked Protein in Epidermal Cell Lines. Black squares represent HPV 18 human epithelial keratinocytes; black circles represent SV 40 infected human keratinocytes; black triangles represent (SQCC-Y1) cells; white triangles represent (SP-1) benign tumor mouse keratinocytes; white squares represent (308 cells) benign mouse keratinocytes; and white circles represent (I-7) cells mouse squamous cell carcinoma.
(§4) Primary mouse keratinocytes were isolated from BALB/c newborn mouse skin. Primary keratinocytes, the benign neoplastic keratinocyte cell lines 308 and SP-1 (Strickland et al, Cancer Res., 48, 165-169, 1988) and the mouse squamous cell carcinoma line 1-7 (Greenhalgh et al., Proc. Natl. Acad. Sci., 87, 643-647, 1990) were grown in Eagle's minimal essential medium with 8% fetal calf serum (FCS) (chelexed) and penicillin 20 iu/ml, streptomycin 20 ug/ml (P/S). Unless otherwise indicated, the Ca^2+ concentration in medium was adjusted to 0.05 mM (Hennings et al., Cells, 19, 245-254, 1980). […]
(§5) Cells were incubated with MC for 48 hours, then cross-linked protein was isolated and measured as described in Example 1.
(§6) The assay measures insoluble cross-linked protein envelopes as described (Hough-Monroe et al. Analytical biochem., 199, 25-28, 1991), with modifications as follows. […] Absorbance of eluate was measured on a Titertek plate reader at 600 nm.

[3] = test system: I-7 mouse squamous cell carcinoma cells; assay: Cornified envelope (cross-linked protein) assay, I-7 cells; type: cell-based; conditions: I-7 (carcinoma), 48 h, 0.1-1 mM
Source text: as §3, §4, §5, §6

[4] = test system: A431 human epidermoid carcinoma cells; assay: Cornified envelope (cross-linked protein) assay, A431 cells; type: cell-based
Source text: as §1
as §4, with “(P/S).” for “(P/S). Unless otherwise indicated, the Ca^2+ concentration in medium was adjusted to 0.05 mM (Hennings et al., Cells, 19, 245-254, 1980).”
as §5, §6, §2

[5] = test system: primary mouse keratinocytes; assay: MTT cytotoxicity assay; type: cell-based; conditions: within 4 hours, medium with 1.4 mM Ca2+
Method: FIGS. 3A and 3B. A: Time course for cornification of primary mouse keratinocytes in response to MC. Boxes represent […] Ca^2+, triangles represent 100 μM MC, 1.4 mM Ca^2+, and solid circles represent 1 mM MC, 1.4 mM Ca^2+. […] Cells were incubated in medium with 1.4 mM Ca^2+ and MC for 4 hours, then were incubated with MTT (0.5 mg/ml in medium) for a further 4 hours before determination of formazan production.
MTT is a dye which is reduced by mitochondrial dehydrogenase enzymes to a blue formazan product. Ability of cells to reduce MTT can be used to measure cell viability (Mosmann T., J. Immunol. Methods, 65, 55-63, 1983). Cells were incubated in 96 well plates with or without MC for the indicated time, then were incubated for a further 4 hours with 0.5 mg/ml MTT. Medium was removed and 88.9% DMSO, 11.11% glycine buffer (100 mM glycine, 100 mM NaCL pH 10.5) was added to each well. Plates were shaken for 20 minutes to allow formazan dissolution, then absorbance was measured on a plate reader at 570 nm.

EGF receptor = assay: Western blot analysis of in vitro assay with EGF receptor; type: biochemical
athymic nude mouse skin = assay: Acute topical toxicity on athymic nude mouse skin; type: in vivo
Method: FIGS. 9A, 9B, 9C, 9D and 9E show color photographs. Topical Application of MC on Athymic Nude Mouse Skin. Histological sections were taken from paraffin-embedded tissue and were stained with hematoxylin and eosin. Panel a is vehicle control; panel b is 100 μM MC; panel c is 1 mM MC; panel d is 10 mM MC; and panel e is 100 mM MC. Magnification is 200x.
FIGS. 13A, 13B and 13C show color photographs of mice. […] Photographs were taken after animal sacrifice upon termination of the experiments.
Acute topical toxicity of MC was assessed by its application to athymic mouse skin and observation for inflammation, ulceration or other signs of toxicity after 5x weekly applications for 2 weeks and by microscopical analysis of paraffin-embedded sections of athymic mouse skin after MC application. Male nu/nu mice, 8 weeks old, were subdivided into 5 treatments groups and MC was administered topically in 10% DMSO in acetone vehicle. Mice were treated with a control vehicle, 100 μM MC, 1 mM MC, 10 mM MC or 100 mM MC. Treatment was 5 times per week for two weeks, after which animals were sacrificed and dorsal skin was fixed in Carnoy's solution at 4° C. for 24 hours followed by ethanol 100%. Histological sections were taken from paraffin-embedded tissue and were stained with hematoxylin and eosin. FIG. 13 illustrates the effect of MC on the skin of nude mice.
Male nu/nu mice, 8 weeks old, were subdivided into treatment groups and MC was administered topically to dorsal skin in 10% DMSO in acetone vehicle (25 μl). Treatment was 5 times per week for two weeks. […] MC itself is yellow-brown, so some discoloration would be expected due to drug deposition and accumulation at this high concentration.

SMILES: COC(=O)C=Cc1cc(O)ccc1O [MC, methyl 2,5-dihydroxycinnamate]
- inhibition of cell growth [1]: inhibited cell growth significantly
- cross-linked protein (envelope production) [2]: induced crosslinked envelope production; also recorded: increased cross-linked protein in a dose-dependent manner
- cross-linked protein (envelope production) [3]: induced crosslinked envelope production; also recorded: increased cross-linked protein in a dose-dependent manner
- cross-linked protein (envelope production) ([4]; A431, 48 h, 0.1-1 mM): induced crosslinked envelope production; also recorded: increased cross-linked protein in a dose-dependent manner
- minimal effective concentration ([4]; Homo sapiens, A-431, 72 h, A431, 3 days, read-out: concentration at which protein cross-linking is evident): ≥ 250 µM
- MTT reduction / cell death [5]: cell death; also recorded: Inhibits MTT Reduction
- MC-induced mobility retardation of the EGF receptor, effect of DTT (EGF receptor; DTT, Western blot): did inhibit MC-induced mobility retardation of the EGF receptor
- tyrosine kinase inhibition in presence of DTT (EGF receptor; effect of DTT on MC tyrosine kinase inhibition, in vitro): did not prevent tyrosine kinase inhibition
- microscopy: inflammatory infiltrates (athymic nude mouse skin; mouse, in vivo): focal inflammatory infiltrates were visible
- microscopy: necrosis (athymic nude mouse skin; mouse, in vivo): no obvious necrosis
- microscopy: vacuolation of epidermal cells (athymic nude mouse skin; mouse, in vivo): some vacuolation of epidermal cells
- systemic toxicity or changes in skin at the application site (athymic nude mouse skin; mouse, in vivo): No changes were observed
- acute toxicity or inflammation by microscopy (athymic nude mouse skin; up to 10 mM, topical, normal athymic mouse skin): not acutely toxic or inflammatory
